Source: patent US20220323594A1, “LIPIDATED CATIONIC PEPTIDE-PEG COMPOSITIONS FOR NUCLEIC ACID DELIVERY” (NUTCRACKER THERAPEUTICS, INC., priority 2019, published 2022)

Tests used:
[1] = MTT viability assay after treatment with Fluc mRNA/amino lipidated peptoid formulations; type: cell-based; conditions: human, HeLa cells
Method in brief: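 Viability relative to untreated cells came from the formazan read-out after 2 h with 1.5 mg/mL MTT and acidic isopropanol/Triton lysis. The MTT step followed an 8 h exposure to 100 ng/well Fluc mRNA in 5:1 peptoid:mRNA, 2% DMG-PEG2000 formulations and a further 48 h of culture.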

HeLa cells [2] = experiment: In vitro Fluc expression with variable peptoid:mRNA mass ratio, 2% DMG-PEG2000; type: cell-based; conditions: 24 h; for Observed Luciferase Expression (RLU) for Given Formulation Mass Ratio 2:1: 2% (w/w) DMG-PEG2000, peptoid:mRNA 2:1; for Observed Luciferase Expression (RLU) for Given Formulation Mass Ratio 3.5:1: 2% (w/w) DMG-PEG2000, peptoid:mRNA 3.5:1; for Observed Luciferase Expression (RLU) for Given Formulation Mass Ratio 5:1: 2% (w/w) DMG-PEG2000, peptoid:mRNA 5:1; for Observed Luciferase Expression (RLU) for Given Formulation Mass Ratio 7.5:1: 2% (w/w) DMG-PEG2000, peptoid:mRNA 7.5:1
Method in brief: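 HeLa cells exposed 24 hours to amino lipidated peptoid/Fluc mRNA formulations containing 2% w/w DMG-PEG2000 (relative to peptoid), across peptoid:mRNA mass ratios of 2:1 to 7.5:1. Read-out: average luciferase bioluminescence (RLU).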

HeLa cells [3] = experiment: In vitro expression of firefly luciferase (Fluc) after treatment with Fluc mRNA/amino lipidated peptoid formulations, no PEG or 2% DMG-PEG2000; type: cell-based
Method in brief: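 HeLa cells received 100 ng/well Fluc mRNA complexed with amino lipidated peptoid at 5:1 peptoid:mRNA (w/w), either peptoid alone or with 2% w/w DMG-PEG2000. Expression quantified as RLU by luminescence at 6 and 24 h.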

[4] = mRNA encapsulation by fluorescence of Qubit RNA HS dye before and after lysis with Triton X-100; type: physicochemical; conditions: percentage of mRNA encapsulation; Fluc mRNA/peptoid formulation, 5:1 mass ratio
Method in brief: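 Encapsulation was measured by comparing Qubit RNA HS fluorescence of intact particles with that after Triton X-100 lysis. Particles were amino-lipidated cationic peptoids complexed with firefly luciferase mRNA at 5:1 peptoid:cargo by mass, mixed by pipetting.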

[5] = Dynamic light scattering (DLS) of mRNA/peptoid formulations: particle size and polydispersity; type: physicochemical; conditions: Fluc mRNA/peptoid formulation; for Size PDI: size polydispersity index by DLS, 5:1 mass ratio; for Size (nm): volume average particle size/diameter by DLS, 5:1 mass ratio peptoid:cargo
Method in brief: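 Volume-average particle diameter (nm) and PDI were measured by dynamic light scattering. Formulations combined peptoid diluted in ethanol with Fluc mRNA in pH 5.5 PBS at 1:3 by volume, mixed by pipetting at 5:1 peptoid:mRNA by mass.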

[6] = no PEG, peptoid:Fluc mRNA 5:1 w/w, 100 ng/well, 6 h of treatment
[7] = no PEG, peptoid:Fluc mRNA 5:1 w/w, 100 ng/well, 24 h of treatment
[8] = with 2% (w/w) DMG-PEG2000, peptoid:mRNA 5:1, 6 h after treatment
[9] = with 2% (w/w) DMG-PEG2000, peptoid:mRNA 5:1, 24 h after treatment

| Compound | viability at 8 h, 500 ng/well ([1]; Relative Viability (%) 2% PEG) [%] | viability at 8 h, 500 ng/well ([1]; Relative Viability (%) No PEG) [%] | Observed Luciferase Expression (RLU) for Given Formulation Mass Ratio 2:1 (HeLa cells [2]) [RLU] | Observed Luciferase Expression (RLU) for Given Formulation Mass Ratio 3.5:1 (HeLa cells [2]) [RLU] | Observed Luciferase Expression (RLU) for Given Formulation Mass Ratio 5:1 (HeLa cells [2]) [RLU] | Observed Luciferase Expression (RLU) for Given Formulation Mass Ratio 7.5:1 (HeLa cells [2]) [RLU] | Luciferase Expression (RLU) 6 h (HeLa cells [3]; [6]) [RLU] | Luciferase Expression (RLU) 24 h (HeLa cells [3]; [7]) [RLU] | Luciferase Expression (RLU) 6 h (HeLa cells [3]; [8]) [RLU] | Luciferase Expression (RLU) 24 h (HeLa cells [3]; [9]) [RLU] | % Encapsulation [4] [%] | Size PDI [5] | Size (nm) [5] [nm] |
| --- | --- | --- | --- | --- | --- | --- | --- | --- | --- | --- | --- | --- | --- |
| CCCCCCCCCCN(CC(N)=O)C(=O)CN(CCCCCCCCCC)C(=O)CN(CCCCCCCCCC)C(=O)CN(CCCCCCCCCC)C(=O)CN(CCc1ccccc1)C(=O)CN(CCc1ccccc1)C(=O)CN(CCNC)C(=O)CN(CCc1ccccc1)C(=O)CN(CCc1ccccc1)C(=O)CN(CCNC)C(=O)CN(CCc1ccccc1)C(=O)CN(CCc1ccccc1)C(=O)CNCCNC [Compound 25] | 85.9 | 77.9 | 3.86E+02 | 8.41E+03 | 5.03E+03 | 5.66E+03 | 3.93E+02 | 2.07E+03 | 1.81E+03 | 7.30E+02 | 8.4 | 0.021 | 773.3 |
| CCCCCCCCCCN(CC(N)=O)C(=O)CN(CCCCCCCCCC)C(=O)CN(CCc1ccccc1)C(=O)CN(CCc1ccccc1)C(=O)CN(CCNC)C(=O)CN(CCc1ccccc1)C(=O)CN(CCc1ccccc1)C(=O)CN(CCNC)C(=O)CN(CCc1ccccc1)C(=O)CN(CCc1ccccc1)C(=O)CNCCNC [Compound 27] | 91.1 | 93.9 | 6.27E+03 | 8.40E+02 | 8.69E+02 | 6.41E+02 | 9.88E+02 | 7.40E+02 | 3.13E+02 | 6.36E+02 | 50.9 | 0.606 | 438.7 |
| CCCCCCCCCCN(CC(N)=O)C(=O)CN(CCCCCCCCCC)C(=O)CN(CCc1ccccc1)C(=O)CN(CCc1ccccc1)C(=O)CN(CCCN)C(=O)CN(CCc1ccccc1)C(=O)CN(CCc1ccccc1)C(=O)CN(CCCN)C(=O)CN(CCc1ccccc1)C(=O)CN(CCc1ccccc1)C(=O)CNCCCN [Compound 30] | 88 | 86.5 | 4.27E+04 | 3.43E+03 | 3.46E+03 | 1.47E+03 | 2.79E+03 | 1.29E+04 | 1.79E+03 | 1.52E+03 | 8.4 | 0.455 | 282.8 |
| CCCCCCCCCCN(CC(N)=O)C(=O)CN(CCCCCCCCCC)C(=O)CN(CCCCCCCCCC)C(=O)CN(CCCCCCCCCC)C(=O)CN(CCc1ccccc1)C(=O)CN(CCc1ccccc1)C(=O)CN(CC1CCNCC1)C(=O)CN(CCc1ccccc1)C(=O)CN(CCc1ccccc1)C(=O)CN(CC1CCNCC1)C(=O)CN(CCc1ccccc1)C(=O)CN(CCc1ccccc1)C(=O)CNCC1CCNCC1 [Compound 31] | 98.4 | 83.8 | 2.07E+02 | 5.70E+02 | 3.77E+03 | 2.05E+03 | 5.84E+02 | 2.93E+03 | 4.30E+02 | 2.63E+02 | 35.7 | 0.404 | 348.5 |
| CCCCCCCCCCN(CC(N)=O)C(=O)CN(CCCCCCCCCC)C(=O)CN(CCCCCCCCCC)C(=O)CN(CCCCCCCCCC)C(=O)CN(CCc1ccccc1)C(=O)CN(CCc1ccccc1)C(=O)CN(CC1CCNCC1)C(=O)CN(CCc1ccccc1)C(=O)CN(CCc1ccccc1)C(=O)CN(CC1CCNCC1)C(=O)CN(CCc1ccccc1)C(=O)CN(CCc1ccccc1)C(=O)CN(CC1CCNCC1)C(=O)CN(CCc1ccccc1)C(=O)CN(CCc1ccccc1)C(=O)CNCC1CCNCC1 [Compound 32] | 102 | 90.7 | 1.82E+02 | 3.09E+02 | 3.77E+03 | 3.37E+03 | 4.25E+02 | 2.00E+03 | 4.82E+02 | 3.40E+02 | 50.9 | 0.274 | 247.5 |
| CCCCCCCCCCN(CC(N)=O)C(=O)CN(CCCCCCCCCC)C(=O)CN(CCc1ccccc1)C(=O)CN(CCc1ccccc1)C(=O)CN(CC1CCNCC1)C(=O)CN(CCc1ccccc1)C(=O)CN(CCc1ccccc1)C(=O)CN(CC1CCNCC1)C(=O)CN(CCc1ccccc1)C(=O)CN(CCc1ccccc1)C(=O)CNCC1CCNCC1 [Compound 33] | 98 | 99.4 | 1.76E+04 | 6.62E+02 | 7.46E+02 | 3.12E+02 | 4.61E+03 | 1.14E+04 | 4.64E+02 | 5.17E+02 | 82.0 | 0.048 | 435.7 |
| CCCCCCCCCCN(CC(N)=O)C(=O)CN(CCCCCCCCCC)C(=O)CN(CCc1ccccc1)C(=O)CN(CCc1ccccc1)C(=O)CN(CC1CCCN1)C(=O)CN(CCc1ccccc1)C(=O)CN(CCc1ccccc1)C(=O)CN(CC1CCCN1)C(=O)CN(CCc1ccccc1)C(=O)CN(CCc1ccccc1)C(=O)CNCC1CCCN1 (stereo not shown) [Compound 36] | 108 | 93.6 | 9.24E+02 | 4.18E+02 | 5.17E+02 | 6.71E+02 | 9.34E+03 | 7.78E+03 | 3.36E+02 | 7.45E+02 | 71.5 | 0.127 | 374.4 |
